Data set [1] is described as follows: early trial of patch with binary enhancer system: crystallization of enhancer in the patch on storage. As to conditions: binary enhancer system of methylnicotinate and propylene glycol in vitamin B12 patch. The data set is classed as physicochemical. From the text: (§1) Permeation enhancers identified as useful for this product included nicotinates (methyl and benzyl), fatty acids (oleic acid, undecanioic acid, lauric acid), fatty alcohols (octanol and nonanol), terpenes (menthol, limonene, and menthone), and polyols (polyethylene glycol, propylene glycol, and glycerol). In an early trial, a binary enhancer system of methylnicotinate and propylene glycol was used but the inventor observed that the methylnicotinate crystallized after about 3-4 months in the patch.

The subject of data set [2] is skin. Nature of the data set: permeation enhancement of vitamin B12 from the patch. As to conditions: in conjunction with propylene glycol.
From the text: as §1

In data set [3] the test system is skin. Kind of data set: skin irritation on wear of patch with nicotinate enhancer. The data set is classed as in vivo. As to conditions: benzylnicotinate substituted for methylnicotinate in the patch enhancer system.
From the text: as §1

The results in this text go back to patent US9700522B2, “Transdermal patch and method for delivery of vitamin B12” (Vita Sciences LLC, priority 2007, dated 2017).

For `COC(=O)c1cccnc1` [methylnicotinate], the “time after which the enhancer crystallized in the patch” value in data set [1] was 3-4 months.

Regarding `CC(C)[C@@H]1CC[C@@H](C)CC1=O` [menthone], the permeation enhancer performance entry in the data set with skin [2] is recorded as “excellent permeation enhancer”.

Regarding `O=C(OCc1ccccc1)c1cccnc1` [benzylnicotinate], in the data set on skin [3], the skin irritation entry was “severe and unacceptable skin irritation”.
